Tests used:
Format in all cases: cell-based, human
HCT116 mTRdm-fLUC cells = assay: 5-Assay / 15-Assay toxin assays, fLUC plate reader (Fold Induction)
Method: The 5-Assay and 15-Assay procedures were applied to cellular pools using either of two growth procedures (e.g. a Cell Count or Confluence growth assay). For a Cell Count assay, cells from the P1 pool dish were counted and passed into a white clear bottom 96-well microtiter tray at a density of 25,000 cells per well; the leftover cells were passed into a passage 2 (P2) dish. Cells in the microtiter plate were allowed to grow for about 40 hr to achieve a ˜75% cell confluence prior to incubation with a toxic agent. Then cells in a microtiter plate were treated with complete growth medium containing either no toxin or an optimal toxin, defined as a single or multiple toxin assay that produces a maximal translational response (taken from Table 3) and incubated for 6 hours at 37° C. Each treatment was performed on triplicate wells.
After toxin incubation, cells were examined by phase contrast microscopy for signs of detachment. If more than ˜10% of cells were detached, the 96-well plates were centrifuged at 1200 rpm for 3 min to pellet the detached cells. The media were removed and replaced with 50 μL of Cell Lysis Buffer (25 mM Tris-phosphate (pH7.8), 10% glycerol, 1% Triton X-100, 1 mg/ml BSA, 2 mM EGTA and 2 mM DTT). Cells were incubated with the Cell Lysis Buffer for 10 min at RT and cell lysis was verified using a phase contrast microscope. To ensure complete lysis, the lysates were vigorously agitated using the multichannel pipettor. Any air bubbles formed as a result of agitation were manually removed with a syringe needle. Luminescence was measured using the FLUOstar Optima (BMG Labtech) microplate reader. To develop luminescence, wells were injected with 5 μL of the D-luciferin solution dissolved in Reaction Buffer (25 mM Glycylglycine (pH 7.8), 15 mM MgSO4, 4 mM EDTA, 15 mM Potassium phosphate, 1 mM DTT, 1 mM Coenzyme A, 6.7 mM ATP and 3.35 mM D-luciferin). After 4 sec with shaking, luminescence values were measured using the lens filter at gains of 2500-4000.
Light values were converted to Fold Induction using the ratio of values produced by treated and untreated cells. The maximal TR-specific translational response produced by the 5-Toxin or 15-Toxin assay was used to assign an optimal toxin assay (maximal translational response) which was subsequently used to screen subclones derived from this pool and to assign a Class designation. […]
In one test, the 5-Assay procedure (Table 3) was applied to HCT116 mTRdm-fLUC 12-16 subclone #30 cells (FIG. 1A). […] Samples were then processed with Lysis buffer and read in a plate reader. […]
Triplicate samples of HCT116 mTRdm-fLUC 12-16 Sub#30 cells were cultured with the two-Toxin assays using a standard plate reader protocol (FIG. 1C). […]

[1] = tested on: MCF7 CMV-fLuc subclones #44 and #48; assay: PKC activator dose response, cap-dependent translation (fLuc); settings: single-Toxin, 6 hr
Method: Following 6 hr exposure to the Single-Toxin TPA assay, cells were lysed and fLuc protein activity measured using a standard microplate reader assay. The raw values were averaged and expressed as the ratio of treated to untreated samples (Fold Induction).
Dashed lines represent translational response levels produced by a 100 nM TPA Single-Toxin assay. The Bryostatin 1 concentrations (top panel) encompassed the TPA concentrations used in FIG. 27A. […] The Bryostatin 2 dose response curve (bottom panel) employed higher drug concentrations (the maximal tested dose was 5× the largest TPA and Bryostatin 1 amounts). At the highest tested dose (2.5 uM), Bryostatin 2 produced fLuc activity consistent with the level observed with 100 nM TPA.
In addition to measuring cap-dependent and cap-independent translational effects, Class-specific translational activity and toxin-defined actions, the previously described materials and methods allow for a variety of applications designed to detect and characterize agents and processes that regulate ribosome activity. In this example, comparative dose response assays were used to detect cap-dependent and cap-independent translational regulation in MCF7 cells. The basis for this application was the observation that distinct translational responses are produced by compounds at different doses. When an assortment of compounds act on a common molecular target, they can be grouped into a genus of related drugs. By comparing individual species of a compound genus over a defined dose range, differences in translational regulation can be defined. Furthermore, these translational differences can often be linked to biological differences.
In this example (FIG. 27), the three PKC activators produced similar dose response trends in cap-dependent assays. […] However, macrolide lactones produced translational increases that were generally 60-70% of the TPA translational response (FIG. 27B). In fact, a 25 fold increase in Bryostatin 2 concentration (2.5 uM) was needed to produce a translational magnitude similar to the 100 nM TPA assay (FIG. 27B).

[2] = tested on: MCF7 mTRdm-fLuc subclones #8, #27, and #45; assay: PKC activator dose response, cap-independent TR translation (fLuc); settings: single-Toxin, 6 hr
Method: Following 6 hr culture with a TPA single-Toxin assay, cells were lysed and fLuc protein activity measured using a standard microplate reader assay. The plate reader values were averaged and expressed as the ratio of treated to untreated samples (Fold Induction).
As with FIG. 27B, dashed lines represent translational response levels achieved by the 100 nM TPA assay in each cell line. […] A further difference between the cap-dependent and cap-independent assays was the observation that increased Bryostatin 2 concentrations (5× the maximal TPA dose) never produced fLUC activity equivalent to the 100 nM TPA assay. Thus, the Toxin Assay procedure can detect a statistically significant difference in cap-dependent and cap-independent translation in compounds that activate PKC activity.
In the cap-independent assays, a similar dose response trend was observed over a 1 nM to 250 nM range with a translational peak at a 100 nM dose. However, the magnitude of the Bryostatin increases were generally 30% of 100 nM TPA response.

[3] = tested on: HEK293 CMV-fLuc subclone #3; assay: Updated 15-Assay / 21-Assay, cap-dependent translational responses; settings: Updated 15-Assay two-Toxin with 100 nM TPA, cap-dependent
Description: The dashed line represents the level of translational response in the untreated samples.
Following 6 hr exposure to the compounds, cells were lysed and fLuc protein activity measured using a standard microplate reader assay. The triplicate plate reader values were averaged and expressed as the ratio of treated to untreated samples (Fold Induction). The dashed line represents the level of translational response in the untreated samples.
The 21-Assay procedure employs the same standard toxins as the Updated 15-Assay protocol. The extra 6 assays involve an unknown or an uncharacterized compound and its pairwise combinations with the five toxins: Unknown, Unknown+TPA, Unknown+Colchcine, Unknown+Bortezomib (Velcade), Unknown+Low dose Calon, and Unknown+Hycamtin (Topotecan).
Application of single-Toxin and two-Toxin assays in the Updated 15-Assay protocol was used to define cap-dependent translational responses in the HEK293 CMV-fLuc #3 subclone (FIG. 30A).
The combinatorial process described in this example provides a system for testing translational regulation by unknown compounds. In this example, a 21-Assay setup is described that employs the single and pairwise combinatorial application of 5 toxins, as in a standard 15-Toxin assay, and the addition of a sixth substance. Inclusion of the sixth substance requires the expansion of the assay group to a total of 21 single- and two-Toxin assays. For this example, a control substance (taxol) was selected from the original 15-Assay system.

CCCC(=O)Nc1ncnc2c1ncn2[C@@H]1O[C@@H]2COP(=O)(O)O[C@H]2[C@H]1OC(=O)CCC [dbcAMP, Dibutyryl-cyclic AMP]
translational response (HCT116 mTRdm-fLUC cells; dbcAMP single-Toxin assay, HCT116 mTRdm-fLUC transformed subclones): minimal translational response

CCCCCCCCCCCCCC(=O)O[C@@H]1[C@@H](C)[C@@]2(O)[C@@H](C=C(CO)C[C@]3(O)C(=O)C(C)=C[C@@H]23)[C@@H]2C(C)(C)[C@]12OC(C)=O [TPA, 12-O-tetradecanoylphorbol-13-acetate]
TR-specific toxin response (HCT116 mTRdm-fLUC cells; 5-Assay, 6 hr, HCT116 mTRdm-fLUC 12-16 subclone #38): Maximal TR-specific toxin responses
increase in reporter activity (maximal TR-specific response) (HCT116 mTRdm-fLUC cells; 5-Assay, TPA single-Toxin 100 nM, 6 hr, HCT116 mTRdm-fLUC 12-16 subclone #30): 800-1200%
dose giving maximal reporter level (translational peak) [1]: 100 nM
dose giving peak fLuc protein activity [2]: 100 nM

CNc1ccc2oc(C[C@H]3O[C@@]4(CC[C@H]3C)O[C@H]([C@H](C)C(=O)c3ccc[nH]3)[C@H](C)C[C@H]4C)nc2c1C(=O)O [calcimycin, Calcimycin]
effect on the TPA response [3]: TPA response was antagonized

CC(C)C[C@H](NC(=O)[C@H](Cc1ccccc1)NC(=O)c1cnccn1)B(O)O [Velcade, [(1R)-3-methyl-1-[[(2S)-1-oxo-3-phenyl-2-[(pyrazinylcarbonyl)amino]propyl]amino]butyl] boronic acid]
effect on the TPA response [3]: TPA response was antagonized

Reference: patent US9388405B2, “Method for identifying a subpopulation of mammalian cells with distinctive ribosome translation profiles” (priority 2009, dated 2016)
